# Experimental data published in PubChem BioAssay (NCI).
#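 Protocol summary: plate cells (96-well), add compound at 5 concentrations, incubate 48 h, interpolate endpoints linearly. The concentration for full growth arrest is given as TGI.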
# Key:
# Experiment in all cases: NCI tumour cell line growth inhibition, 48 h
# 786-0 renal = system: 786-0 renal
# A498 renal = system: A498 renal
# A549 NSCLC = system: A549 NSCLC
# ACHN renal = system: ACHN renal
# BT-549 breast = system: BT-549 breast
# CAKI-1 renal = system: CAKI-1 renal
# CCRF-CEM leukemia = system: CCRF-CEM leukemia
# COLO 205 colon = system: COLO 205 colon
# DU-145 prostate = system: DU-145 prostate
# EKVX NSCLC = system: EKVX NSCLC
# HCC-2998 colon = system: HCC-2998 colon
# HCT-116 colon = system: HCT-116 colon
# HCT-15 colon = system: HCT-15 colon
# HL-60(TB) leukemia = system: HL-60(TB) leukemia
# HOP-92 NSCLC = system: HOP-92 NSCLC
# IGROV1 ovarian = system: IGROV1 ovarian
# K-562 leukemia = system: K-562 leukemia
# KM12 colon = system: KM12 colon
# LOX IMVI melanoma = system: LOX IMVI melanoma
# M14 melanoma = system: M14 melanoma
# MALME-3M melanoma = system: MALME-3M melanoma
# MCF7 breast = system: MCF7 breast
# MDA-MB-231 breast = system: MDA-MB-231 breast
# MDA-MB-435 = system: MDA-MB-435
# MDA-N = system: MDA-N
# MOLT-4 leukemia = system: MOLT-4 leukemia
# NCI-H23 lung = system: NCI-H23 lung
# NCI-H460 lung = system: NCI-H460 lung
# NCI-H522 lung = system: NCI-H522 lung
# NCI/ADR-RES ovarian = system: NCI/ADR-RES ovarian
# OVCAR-3 ovarian = system: OVCAR-3 ovarian
# OVCAR-4 ovarian = system: OVCAR-4 ovarian
# OVCAR-5 ovarian = system: OVCAR-5 ovarian
# OVCAR-8 ovarian = system: OVCAR-8 ovarian
# PC-3 prostate = system: PC-3 prostate
# RPMI-8226 leukemia = system: RPMI-8226 leukemia
# RXF 393 renal = system: RXF 393 renal
# SF-295 CNS = system: SF-295 CNS
# SF-539 CNS = system: SF-539 CNS
# SK-MEL-2 melanoma = system: SK-MEL-2 melanoma
# SK-MEL-28 melanoma = system: SK-MEL-28 melanoma
# SK-MEL-5 melanoma = system: SK-MEL-5 melanoma
# SK-OV-3 ovarian = system: SK-OV-3 ovarian
# SN12C renal = system: SN12C renal
# SNB-19 CNS = system: SNB-19 CNS
# SNB-75 CNS = system: SNB-75 CNS
# SR leukemia = system: SR leukemia
# SW-620 colon = system: SW-620 colon
# TK-10 renal = system: TK-10 renal
# U251 CNS = system: U251 CNS
# UACC-257 melanoma = system: UACC-257 melanoma
# UACC-62 melanoma = system: UACC-62 melanoma
# UO-31 renal = system: UO-31 renal
# HOP-62 NSCLC = system: HOP-62 NSCLC
# HS 578T breast = system: HS 578T breast
# HT29 colon = system: HT29 colon
# NCI-H226 lung = system: NCI-H226 lung
# SF-268 CNS = system: SF-268 CNS
# T-47D breast = system: T-47D breast
structure (smiles),measurement,setting,value
CC(C)CC(NC(=O)C(CI)Cc1ccccc1)C(=O)Nc1ccccc1 (configuration not stated),TGI,786-0 renal,> 100 µM
same,TGI,A498 renal,> 100 µM
same,TGI,A549 NSCLC,> 100 µM
same,TGI,ACHN renal,> 100 µM
same,TGI,BT-549 breast,57 µM
same,TGI,CAKI-1 renal,> 100 µM
same,TGI,CCRF-CEM leukemia,> 100 µM
same,TGI,COLO 205 colon,> 100 µM
same,TGI,DU-145 prostate,> 100 µM
same,TGI,EKVX NSCLC,> 100 µM
same,TGI,HCC-2998 colon,> 100 µM
same,TGI,HCT-116 colon,> 100 µM
same,TGI,HCT-15 colon,> 100 µM
same,TGI,HL-60(TB) leukemia,> 100 µM
same,TGI,HOP-92 NSCLC,> 100 µM
same,TGI,IGROV1 ovarian,> 100 µM
same,TGI,K-562 leukemia,> 100 µM
same,TGI,KM12 colon,> 100 µM
same,TGI,LOX IMVI melanoma,> 100 µM
same,TGI,M14 melanoma,> 100 µM
same,TGI,MALME-3M melanoma,> 100 µM
same,TGI,MCF7 breast,> 100 µM
same,TGI,MDA-MB-231 breast,> 100 µM
same,TGI,MDA-MB-435,> 100 µM
same,TGI,MDA-N,> 100 µM
same,TGI,MOLT-4 leukemia,> 100 µM
same,TGI,NCI-H23 lung,> 100 µM
same,TGI,NCI-H460 lung,> 100 µM
same,TGI,NCI-H522 lung,> 100 µM
same,TGI,NCI/ADR-RES ovarian,> 100 µM
same,TGI,OVCAR-3 ovarian,> 100 µM
same,TGI,OVCAR-4 ovarian,> 100 µM
same,TGI,OVCAR-5 ovarian,> 100 µM
same,TGI,OVCAR-8 ovarian,> 100 µM
same,TGI,PC-3 prostate,> 100 µM
same,TGI,RPMI-8226 leukemia,> 100 µM
same,TGI,RXF 393 renal,> 100 µM
same,TGI,SF-295 CNS,> 100 µM
same,TGI,SF-539 CNS,> 100 µM
same,TGI,SK-MEL-2 melanoma,> 100 µM
same,TGI,SK-MEL-28 melanoma,> 100 µM
same,TGI,SK-MEL-5 melanoma,> 100 µM
same,TGI,SK-OV-3 ovarian,> 100 µM
same,TGI,SN12C renal,> 100 µM
same,TGI,SNB-19 CNS,> 100 µM
same,TGI,SNB-75 CNS,> 100 µM
same,TGI,SR leukemia,> 100 µM
same,TGI,SW-620 colon,> 100 µM
same,TGI,TK-10 renal,> 100 µM
same,TGI,U251 CNS,> 100 µM
same,TGI,UACC-257 melanoma,> 100 µM
same,TGI,UACC-62 melanoma,> 100 µM
same,TGI,UO-31 renal,> 100 µM
O=[N+]([O-])/C(C(Cl)=C(Cl)Cl)=C(/Nc1ccccc1)SCc1ccccc1,TGI,786-0 renal,31.1 µM
same,TGI,A498 renal,46.7 µM
same,TGI,A549 NSCLC,33.5 µM
same,TGI,ACHN renal,77.4 µM
same,TGI,CAKI-1 renal,68.7 µM
same,TGI,CCRF-CEM leukemia,35.5 µM
same,TGI,COLO 205 colon,42.4 µM
same,TGI,DU-145 prostate,59.4 µM
same,TGI,EKVX NSCLC,48.6 µM
same,TGI,HCC-2998 colon,45 µM
same,TGI,HCT-116 colon,30.2 µM
same,TGI,HCT-15 colon,29.7 µM
same,TGI,HL-60(TB) leukemia,40.2 µM
same,TGI,HOP-62 NSCLC,36.1 µM
same,TGI,HOP-92 NSCLC,60.5 µM
same,TGI,HS 578T breast,75.5 µM
same,TGI,HT29 colon,66.1 µM
same,TGI,IGROV1 ovarian,39.9 µM
same,TGI,K-562 leukemia,49.9 µM
same,TGI,KM12 colon,32.5 µM
same,TGI,LOX IMVI melanoma,39.1 µM
same,TGI,M14 melanoma,30.6 µM
same,TGI,MALME-3M melanoma,30.1 µM
same,TGI,MDA-MB-231 breast,36.4 µM
same,TGI,MDA-MB-435,31.7 µM
same,TGI,MDA-N,33.9 µM
same,TGI,MOLT-4 leukemia,37.3 µM
same,TGI,NCI-H226 lung,44.6 µM
same,TGI,NCI-H23 lung,40.5 µM
same,TGI,NCI-H460 lung,42.8 µM
same,TGI,NCI-H522 lung,47.1 µM
same,TGI,NCI/ADR-RES ovarian,31.1 µM
same,TGI,OVCAR-3 ovarian,28.7 µM
same,TGI,OVCAR-4 ovarian,66.8 µM
same,TGI,OVCAR-5 ovarian,41.2 µM
same,TGI,OVCAR-8 ovarian,34.8 µM
same,TGI,PC-3 prostate,49.4 µM
same,TGI,RPMI-8226 leukemia,37.7 µM
same,TGI,RXF 393 renal,35.5 µM
same,TGI,SF-268 CNS,43.4 µM
same,TGI,SF-295 CNS,90 µM
same,TGI,SF-539 CNS,38.8 µM
same,TGI,SK-MEL-2 melanoma,44.7 µM
same,TGI,SK-MEL-28 melanoma,39.2 µM
same,TGI,SK-MEL-5 melanoma,37 µM
same,TGI,SK-OV-3 ovarian,> 100 µM
same,TGI,SN12C renal,44.2 µM
same,TGI,SNB-19 CNS,58.4 µM
same,TGI,SR leukemia,52.3 µM
same,TGI,SW-620 colon,49 µM
same,TGI,T-47D breast,> 100 µM
same,TGI,TK-10 renal,60.6 µM
same,TGI,U251 CNS,34.6 µM
same,TGI,UACC-257 melanoma,39.5 µM
same,TGI,UACC-62 melanoma,44.6 µM
same,TGI,UO-31 renal,39 µM
c1ccc(NN=C(c2ccccn2)c2ccccn2)nc1,TGI,786-0 renal,> 100 µM
same,TGI,A498 renal,7.11 µM
same,TGI,A549 NSCLC,> 21 µM
same,TGI,ACHN renal,> 100 µM
same,TGI,BT-549 breast,> 100 µM
same,TGI,CAKI-1 renal,> 100 µM
same,TGI,COLO 205 colon,> 100 µM
same,TGI,DU-145 prostate,> 100 µM
same,TGI,EKVX NSCLC,> 100 µM
same,TGI,HCC-2998 colon,> 100 µM
same,TGI,HCT-116 colon,> 100 µM
same,TGI,HCT-15 colon,> 100 µM
same,TGI,HOP-92 NSCLC,> 100 µM
same,TGI,HS 578T breast,> 100 µM
same,TGI,HT29 colon,> 100 µM
same,TGI,IGROV1 ovarian,> 100 µM
same,TGI,K-562 leukemia,> 100 µM
same,TGI,KM12 colon,> 100 µM
same,TGI,LOX IMVI melanoma,> 100 µM
same,TGI,MALME-3M melanoma,26.1 µM
same,TGI,MCF7 breast,> 100 µM
same,TGI,MDA-MB-231 breast,> 100 µM
same,TGI,MDA-MB-435,> 100 µM
same,TGI,MDA-N,> 100 µM
same,TGI,NCI-H23 lung,> 100 µM
same,TGI,NCI-H460 lung,> 100 µM
same,TGI,NCI-H522 lung,> 100 µM
same,TGI,NCI/ADR-RES ovarian,5.05 µM
same,TGI,OVCAR-3 ovarian,> 100 µM
same,TGI,OVCAR-4 ovarian,> 100 µM
same,TGI,OVCAR-5 ovarian,> 100 µM
same,TGI,OVCAR-8 ovarian,> 100 µM
same,TGI,PC-3 prostate,> 100 µM
same,TGI,RXF 393 renal,> 100 µM
same,TGI,SF-268 CNS,> 100 µM
same,TGI,SF-295 CNS,> 100 µM
same,TGI,SF-539 CNS,> 47.5 µM
same,TGI,SK-MEL-2 melanoma,> 100 µM
same,TGI,SK-MEL-28 melanoma,> 100 µM
same,TGI,SK-MEL-5 melanoma,> 100 µM
same,TGI,SK-OV-3 ovarian,> 100 µM
same,TGI,SN12C renal,> 100 µM
same,TGI,SNB-19 CNS,> 100 µM
same,TGI,SNB-75 CNS,> 100 µM
same,TGI,SW-620 colon,> 100 µM
same,TGI,TK-10 renal,> 100 µM
same,TGI,U251 CNS,> 61.9 µM
same,TGI,UACC-257 melanoma,> 100 µM
same,TGI,UO-31 renal,0.513 µM
CNC(=S)N=Nc1c(O)n(CN2CCOCC2)c2ccc([N+](=O)[O-])cc12,TGI,786-0 renal,28.7 µM
same,TGI,A498 renal,66.8 µM
same,TGI,A549 NSCLC,> 100 µM
same,TGI,ACHN renal,35.3 µM
same,TGI,CAKI-1 renal,64.1 µM
same,TGI,CCRF-CEM leukemia,71.8 µM
same,TGI,COLO 205 colon,91.3 µM
same,TGI,DU-145 prostate,27.3 µM
same,TGI,EKVX NSCLC,43.7 µM
same,TGI,HCC-2998 colon,45.1 µM
same,TGI,HCT-116 colon,28.7 µM
same,TGI,HCT-15 colon,26.6 µM
same,TGI,HL-60(TB) leukemia,69.8 µM
same,TGI,HOP-62 NSCLC,28.2 µM
same,TGI,HOP-92 NSCLC,43.9 µM
same,TGI,HS 578T breast,73 µM
same,TGI,HT29 colon,> 100 µM
same,TGI,K-562 leukemia,> 100 µM
same,TGI,KM12 colon,97.9 µM
same,TGI,LOX IMVI melanoma,31.8 µM
same,TGI,M14 melanoma,> 100 µM
same,TGI,MALME-3M melanoma,43.3 µM
same,TGI,MCF7 breast,42.9 µM
same,TGI,MDA-MB-231 breast,25 µM
same,TGI,MDA-MB-435,> 100 µM
same,TGI,MDA-N,> 100 µM
same,TGI,MOLT-4 leukemia,> 100 µM
same,TGI,NCI-H226 lung,36.3 µM
same,TGI,NCI-H23 lung,32.2 µM
same,TGI,NCI-H460 lung,75 µM
same,TGI,NCI/ADR-RES ovarian,38 µM
same,TGI,OVCAR-3 ovarian,34.5 µM
same,TGI,OVCAR-4 ovarian,31.2 µM
same,TGI,OVCAR-5 ovarian,70.5 µM
same,TGI,PC-3 prostate,57.5 µM
same,TGI,RPMI-8226 leukemia,50.5 µM
same,TGI,RXF 393 renal,30 µM
same,TGI,SF-268 CNS,47.5 µM
same,TGI,SF-295 CNS,53.4 µM
same,TGI,SF-539 CNS,33.1 µM
same,TGI,SK-MEL-2 melanoma,21.2 µM
same,TGI,SK-MEL-28 melanoma,54.8 µM
same,TGI,SK-MEL-5 melanoma,> 100 µM
same,TGI,SK-OV-3 ovarian,31.9 µM
same,TGI,SN12C renal,38.5 µM
same,TGI,SNB-19 CNS,61.2 µM
same,TGI,SR leukemia,> 100 µM
same,TGI,SW-620 colon,> 100 µM
same,TGI,T-47D breast,38.9 µM
same,TGI,TK-10 renal,29.8 µM
same,TGI,U251 CNS,37.6 µM
same,TGI,UACC-257 melanoma,77.6 µM
same,TGI,UACC-62 melanoma,33.3 µM
same,TGI,UO-31 renal,14.2 µM
